Test results reported in patent US20250230193A1, “CYCLIC COMPOUND HAVING SELECTIVE KRAS INHIBITORY EFFECT ON HRAS AND NRAS” (CHUGAI SEIYAKU KABUSHIKI KAISHA, priority 2022, published 2025).
Where a SMILES comes first, the peptide text is derived from it. Bridges are numbered along the chain shown (N, C = ends). [ ]: non-standard residue; d: D form. The star is where a group is joined. hPhe(3-Cl-4-CF3) = N[C@@H](CCc1ccc(C(F)(F)F)c(Cl)c1)C(=O)O; NMePhe(4-Me) = CN[C@@H](Cc1ccc(C)cc1)C(=O)O; NMeGly(cPent) = CN[C@H](C(=O)O)C1CCCC1; NMeD = CN[C@@H](CC(=O)O)C(=O)O; NMeL = CN[C@@H](CC(C)C)C(=O)O; Morpholide = C1CN(*)CCO1; NMeA = CN[C@@H](C)C(=O)O; Ac5c = NC1(C(=O)O)CCCC1; Aze = O=C(O)[C@@H]1CCN1; Sar = CNCC(=O)O

What was measured:
[1] = target: GDP-bound NRAS wild-type protein (Homo sapiens, UniProt P01111); experiment: Binding to NRAS by surface plasmon resonance (SPR), Single Cycle Kinetics; conditions: KD ratio NRAS/KRAS, SPR
Chain of GDP-bound NRAS wild-type protein (P01111 whole entry): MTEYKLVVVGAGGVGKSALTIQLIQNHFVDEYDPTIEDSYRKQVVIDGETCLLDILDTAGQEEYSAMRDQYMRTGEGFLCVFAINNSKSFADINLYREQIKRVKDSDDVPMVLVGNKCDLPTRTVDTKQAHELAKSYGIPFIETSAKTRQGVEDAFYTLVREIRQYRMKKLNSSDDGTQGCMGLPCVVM

[2] = target: GDP-bound HRAS wild-type protein (Homo sapiens, UniProt P01112); experiment: Binding to HRAS by surface plasmon resonance (SPR), Single Cycle Kinetics
Chain of GDP-bound HRAS wild-type protein (P01112 whole entry): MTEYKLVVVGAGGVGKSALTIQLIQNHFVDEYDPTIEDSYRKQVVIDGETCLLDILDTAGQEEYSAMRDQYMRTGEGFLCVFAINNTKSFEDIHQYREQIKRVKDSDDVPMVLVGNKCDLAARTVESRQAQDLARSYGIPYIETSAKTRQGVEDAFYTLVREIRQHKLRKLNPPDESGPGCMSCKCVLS

[3] = KD ratio HRAS/KRAS, class symbols
[4] = KD ratio HRAS/KRAS, SPR, GDP-bound wild-type proteins

## CC[C@H](C)[C@@H]1NC(=O)[C@H](CC(C)C)N(C)C(=O)C[C@@H](C(=O)N2CCOCC2)N(C)C(=O)[C@H](C2CCCC2)N(C)C(=O)C2(CCCC2)NC(=O)[C@@H]2CCCN2C(=O)[C@H](CCc2ccc(C(F)(F)F)c(Cl)c2)NC(=O)CN(C)C(=O)[C@H](Cc2ccc(C)cc2)N(C)C(=O)[C@@H]2CCN2C(=O)[C@H](C)N(C)C1=O [PP0001] ([NMeL]I[NMeA][Aze][NMePhe(4-Me)][Sar][hPhe(3-Cl-4-CF3)]P[Ac5c][NMeGly(cPent)][NMeD]-Morpholide; lactam N-11)
[1]
  NRAS/KRAS (ratio of KD for GDP-bound NRAS wild-type to KD for KRAS): C (A compound having a KD ratio of 0.1 or more and less than 3 is denoted as C)
[2]; KD ratio HRAS/KRAS, SPR
  HRAS/KRAS (ratio of KD for GDP-bound HRAS wild-type to KD for KRAS): C (A compound having a KD ratio of 0.1 or more and less than 3 is denoted as C)

## CCO[C@@H]1C[C@H]2C(=O)NC3(CC(C)(C)C3)C(=O)N(C)[C@@H](C3CCCC3)C(=O)N(C)[C@H](C(=O)N(C)CC)CC(=O)N(C)[C@@H](C3CCC3)C(=O)N[C@@H]([C@@H](C)CC)C(=O)N(C)CC(=O)N(C)[C@H]3C/C=C\CCN(C3=O)[C@@H](Cc3ccc(C(F)(F)F)cc3)C(=O)N(C)CC(=O)N[C@@H](CCc3ccc(C(F)(F)F)c(OC)c3)C(=O)N2C1 [PP1985]
[2]; KD ratio, GDP-bound HRAS wild-type vs GDP-bound KRAS wild-type, SPR
  HRAS/KRAS (ratio of KD value for HRAS to KD value for KRAS): B (a compound having 3 or more and less than 10 is denoted as B)

## CCC(CC)[C@H]1C(=O)N(C)[C@H](C(=O)N(C)C)CC(=O)N(C)[C@@H](COC)C(=O)N[C@@H]([C@@H](C)CC)C(=O)N(C2CC2)CC(=O)N(C)[C@H]2C/C=C\CCN(C2=O)[C@@H](CC2CCCCC2)C(=O)N(C)CC(=O)N[C@@H](CCc2ccc(Cl)c(Cl)c2)C(=O)N2C[C@H](OC(C)C)C[C@H]2C(=O)NC2(CC(C)(C)C2)C(=O)N1C [PP2517]
[2]; SPR, GDP-bound HRAS wild-type vs GDP-bound KRAS wild-type
  HRAS/KRAS (ratio of KD value with respect to HRAS to KD value with respect to KRAS): A (a compound having 10 or more and less than 20 is denoted as A)

## CCC[C@H]1C(=O)N[C@@H](CC(C)C)C(=O)N(C2CC2)CC(=O)N(C)[C@H]2C/C=C\CCN(C2=O)[C@@H](Cc2ccc(C)cc2)C(=O)N(C)CC(=O)N[C@@H](CCc2ccc(C(F)(F)F)c(Cl)c2)C(=O)N2C[C@H](OCC)C[C@H]2C(=O)NC2(CCC2)C(=O)N(C)[C@@H](C2CCCC2)C(=O)N(C)[C@H](C(=O)N(C)C)CC(=O)N1C [PP2543]
[2]; [3]
  HRAS/KRAS (ratio of KD value with respect to GDP-bound HRAS wild-type protein to KD value with respect to KRAS): B (a compound having 3 or more and less than 10 is denoted as B)

## CC[C@H](C)[C@@H]1NC(=O)[C@H](COC)N(C)C(=O)C[C@@H](C(=O)N2CCCCC2)N(C)C(=O)[C@H](C2CCCC2)N(C)C(=O)C2(CC(C)(C)C2)NC(=O)[C@@H]2C[C@@H](OC(C)C)CN2C(=O)[C@H](CCc2cc(F)c(C(F)(F)F)c(F)c2)NC(=O)CN(C)C(=O)[C@H](Cc2ccc(C(F)(F)F)cc2)N2CC/C=C\C[C@@H](C2=O)N(C)C(=O)CN(C)C1=O [PP2663]
[2]; [3]
  HRAS/KRAS (ratio of KD value with respect to GDP-bound HRAS wild-type protein to KD value with respect to KRAS): A (a compound having 10 or more and less than 20 is denoted as A)

## CCC[C@H]1C(=O)N[C@@H]([C@@H](C)CC)C(=O)N(C)CC(=O)N(C)[C@H]2C/C=C\CCN(C2=O)[C@@H](Cc2ccc(C)cc2)C(=O)N(C)CC(=O)N[C@@H](CCc2ccc(Cl)c(OC)c2)C(=O)N2C[C@H](OCC)C[C@H]2C(=O)NC2(CC(C)(C)C2)C(=O)N(C)[C@@H](C(CC)CC)C(=O)N(C)[C@H](C(=O)N(C)C)CC(=O)N1C [PP2791]
[2]; [3]
  HRAS/KRAS (ratio of KD value with respect to GDP-bound HRAS wild-type protein to KD value with respect to KRAS): A (a compound having 10 or more and less than 20 is denoted as A)

## CCO[C@@H]1C[C@H]2C(=O)NC3(CC(C)(C)C3)C(=O)N(C)[C@@H](C3CCCC3)C(=O)N(C)[C@H](C(=O)N(C)C)CC(=O)N(C)[C@H]3CCCCCCc4ccc(cc4)C[C@@H](C(=O)N(C)CC(=O)N[C@@H](CCc4ccc(C(F)(F)F)c(OC)c4)C(=O)N2C1)N1CC/C=C\C[C@@H](C1=O)N(C)C(=O)CN(C1CC1)C(=O)[C@H]([C@@H](C)CC)NC3=O [PP3070]
[2]; [4]
  HRAS/KRAS (ratio of KD value with respect to GDP-bound HRAS wild-type protein to KD value with respect to KRAS): B (a compound having 3 or more and less than 10 is denoted as B)

## CCC[C@H]1C(=O)N[C@@H]([C@@H](C)CC)C(=O)N(C)CC(=O)N(C)[C@H]2C/C=C\CCN(C2=O)[C@@H](Cc2ccc(C(F)(F)F)cc2)C(=O)N(C)CC(=O)N[C@@H](CCc2ccc(C(F)(F)F)c(OC)c2)C(=O)N2C[C@H](OCC)C[C@H]2C(=O)N(C)C2(CCC2)C(=O)N(C)[C@@H](C2CCCC2)C(=O)N(C)[C@H](C(=O)N2CCCCC2)CC(=O)N1C [PP3103, (2S,8S,12R,14S,20S,23S,27S,30S,36S,38Z)-20-cyclopentyl-12-ethoxy-8-[2-[3-methoxy-4-(trifluoromethyl)phenyl]ethyl]-4,16,19,22,26,32,35-heptamethyl-30-[(1S)-1-methylpropyl]-23-(piperidine-1-carbonyl)-27-propyl-2-[[4-(trifluoromethyl)phenyl]methyl]spiro[1,4,7,10,16,19,22,26,29,32,35-undecazatricyclo[34.5.1.0^10,14]dotetracont-38-ene-17,1′-cyclobutane]-3,6,9,15,18,21,25,28,31,34,42-undecone]
[2]; [4]
  HRAS/KRAS (ratio of KD value with respect to GDP-bound HRAS wild-type protein to KD value with respect to KRAS): A (a compound having 10 or more and less than 20 is denoted as A)
